From publication PMC2994389 (2010)

Target: T1, PARP-1 (Homo sapiens, UniProt P09874)
T1 construct: gene PARP1
Experiment: colorimetric PARP assay kit (Trevigen), biotinylated NAD incorporation
Type: biochemical

T1 sequence (P09874 2-1014): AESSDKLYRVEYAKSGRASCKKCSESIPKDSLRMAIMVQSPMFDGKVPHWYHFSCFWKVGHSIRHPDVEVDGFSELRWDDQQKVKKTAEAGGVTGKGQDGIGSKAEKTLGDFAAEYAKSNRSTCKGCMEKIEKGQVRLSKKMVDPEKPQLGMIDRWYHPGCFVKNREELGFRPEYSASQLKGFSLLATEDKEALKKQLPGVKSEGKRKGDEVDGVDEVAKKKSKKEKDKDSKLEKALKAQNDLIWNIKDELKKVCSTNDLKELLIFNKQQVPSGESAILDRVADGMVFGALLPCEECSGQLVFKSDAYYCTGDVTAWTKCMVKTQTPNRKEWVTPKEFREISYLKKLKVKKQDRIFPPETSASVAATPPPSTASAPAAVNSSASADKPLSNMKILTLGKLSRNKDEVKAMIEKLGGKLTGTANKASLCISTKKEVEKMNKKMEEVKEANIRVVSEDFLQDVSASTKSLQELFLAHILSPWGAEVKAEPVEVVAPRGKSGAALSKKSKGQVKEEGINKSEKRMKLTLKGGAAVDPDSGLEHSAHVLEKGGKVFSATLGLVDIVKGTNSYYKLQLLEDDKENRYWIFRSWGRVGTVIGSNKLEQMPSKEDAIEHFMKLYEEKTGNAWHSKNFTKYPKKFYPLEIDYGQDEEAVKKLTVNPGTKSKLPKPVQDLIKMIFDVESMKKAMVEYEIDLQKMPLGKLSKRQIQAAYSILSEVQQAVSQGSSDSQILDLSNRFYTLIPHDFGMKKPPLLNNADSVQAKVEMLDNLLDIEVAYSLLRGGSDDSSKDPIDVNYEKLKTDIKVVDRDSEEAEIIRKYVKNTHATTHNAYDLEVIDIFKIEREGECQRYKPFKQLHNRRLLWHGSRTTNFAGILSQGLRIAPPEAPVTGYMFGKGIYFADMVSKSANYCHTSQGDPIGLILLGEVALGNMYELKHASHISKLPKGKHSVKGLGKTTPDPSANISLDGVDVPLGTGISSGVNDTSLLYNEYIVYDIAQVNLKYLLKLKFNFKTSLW

IC50: 320 µM
Structure (SMILES): NCCS(=O)(=O)O [TAU, taurine]
